# Results reported in patent publication US12570643B2, “3-aryloxy-3-five-membered heteroaryl propylamine compound, and crystal form and use thereof” (Shanghai Leado Pharmatech Co. Ltd., priority 2019, dated 2026).
# What was measured:
# [1] = test system: formalin pain model in mice; assay: Formalin pain model in mice; assay type: in vivo, C57BL/6 mice
# From the text: 150 C57BL/6 mice (male, 9 weeks) were randomly divided into 15 groups with 10 mice for each group, and were used for the analgesic activity test of 3 compounds in the formalin pain model in mice: the compound I-1 group (compound I-1 prepared in Example 2, its hydrochloride was used in the experiment), the S-duloxetine group (its hydrochloride was used in the experiment) and the compound C1 group (compound C1 prepared in Comparative Example 1, its hydrochloride was used in the experiment), respectively. Before the start of the experiment, the mice were allowed to adapt to the experimental environment for 72 hours, during which there was no need to fast for food or water. The tested drugs were administrated by intraperitoneal injection, and the doses were as follows: • The compound I-1 group: blank Vehicle (blank normal saline control), 0.1 mg/kg, 0.5 mg/kg, 1 mg/kg, 5 mg/kg and 10 mg/kg; • The S-duloxetine group: blank Vehicle (blank normal saline control), 1 mg/kg, 5 mg/kg, 10 mg/kg and 20 mg/kg; • The Compound C1 group: blank Vehicle (blank normal saline control), 0.1 mg/kg, 0.5 mg/kg, 1 mg/kg, 5 mg/kg and 10 mg/kg.
# After the administration, the mice were placed in a transparent, ventilated plexiglass cylinder, and 1 hour later, 20 μl of 4% formalin solution was injected into the left hind foot plantar of each group of mice with a micro-injector, and foot pain response in mice were recorded in real time with a miniature camera. The length of time of licking the left foot was used as an indicator of pain response, the licking time were observed and recorded during two periods of 0-10 min (phase I) and 10-60 min (phase II) respectively, for statistical analysis, and the half effective dose (ED50) of the 3 compounds were calculated: ED50 refers to the drug dose that reduces the licking time by half compared with the blank control group. The smaller the ED50 value is, the lower the effective analgesic dose of the compound is and the better its analgesic effect is.
# [2] = test system: postoperative pain model in rat; assay: Postoperative pain model in rat, mechanical hyperalgesia test; assay type: in vivo; details: 10 mg/kg intramuscular injection
# Description: Injection of compound I-1: 36.13 mg of compound I-1 prepared in Example 2 was weighed and added into 3.140 mL of normal saline, and well mixed by vortex;
# The solvent of the test compound I-1 was normal saline, the administration dose was 10 mg/kg, and the administration method was intramuscular injection. 36.13 mg of the compound I-1 was weighed and added into 3.140 mL normal saline, and well mixed by vortex. The reference compound used in the experiment was bupivacaine injection, purchased from Shanghai Zhaohui Pharmaceutical Co., Ltd., in a dose of 10 mg/kg via intramuscular injection.
# Aseptic operation was performed during surgery, surgical instruments (scissors, forceps, scalpel, surgical cotton, suture thread) were disinfected before the operation. The rats were anesthetized with sodium pentobarbital (50 mg/kg, intraperitoneal injection), and the toes of the rats were squeezed to confirm that the animals were completely anesthetized before the surgery. Ophthalmic ointment was applied to the animal's eyes to prevent the animal's cornea from drying out. Iodophor and 70% ethanol were used to disinfect the skin of the surgery area on the sole of the left hind foot three times, and the surgery was started after the skin was dried. Starting at 0.5 cm from the heel, a 1 cm long incision was made longitudinally toward the toe. After cutting the skin, the flexor digitorum brevis was lifted to make longitudinal blunt injury. After pressing to stop the bleeding, the wound was sutured. The surgical instruments were cleaned and sterilized with hot bead sterilizer. After the surgery, the animals were placed on an electric blanket and injected subcutaneously with 5 mL normal saline to prevent dehydration. When the animal was completely awake (free to move), put the animal back into the cage. […]
# The rat was placed alone in a plexiglass box with a grid on the bottom of the box to ensure that the rat's feet can be tested. […] During the test, the animal's rapid foot shrinkage was recorded as a pain response. The animal's foot shrinkage when the test fiber left the animal's skin was also recorded as a pain response. If the animal moved or walked, it would not be recorded as the pain response, the test should be repeated. […] The mechanical hyperalgesia test results are recorded in the table of FIG. 10, in which pain response is indicated with an “x” and no pain response is indicated with an “o.”
# Mechanical hyperalgesia was expressed as the paw withdrawal threshold (PWT) in the behavioral test of rats, which was calculated according to the following equation: 50% response threshold (g)=(10(Xf+k))/10,000 • Xf=the final test fiber value used in the test • K=table value (Chaplan et al. 1994, page 62) • □=Average difference 5. […]
smiles,measurement,setting,value
"CNCC[C@@H](Oc1cccc2ccoc12)c1cccs1 [Compound I-1, (R)-3-(benzofuran-7-yloxy)-N-methyl-3-(thiophen-2-yl)propan-1-amine]",ED50,"[1]; Mus musculus, ip, intraperitoneal, phase II (10-60 min), dose that halves licking time vs blank control, read-out: analgesic potency ED50 in phase II pain",0.26 mg/kg
same,ED50 times stronger than that of C1 compound,"[1]; phase II pain, formalin model in mice",8.5 times
same,PWT,"[2]; 1 hour after administration, Normal Saline 3.561",5.885 g
same,PWT (g),"[2]; 2 hours after administration, Normal Saline 3.382",5.135. g
